One experiment has as its target GST-MERTK 578-872 (Homo sapiens (Human), UniProt Q12866). The experiment is described as follows: MERTK kinase homogeneous time resolved fluorescence (HTRF) binding assay. The conditions noted are these: 1 nM kinase, fluorescein-labeled kinase tracer at Kd, 60 minutes at room temperature; read-out: Mer HTRF IC50. Here is the method: (§1) MERTK, AXL, TYRO3 Kinase Homogeneous Time Resolved Fluorescence (HTRF) Assay
(§2) Assays were performed in black, flat-bottom, 1536-well plates. The reactions were incubated at room temperature for 60 minutes, following which the HTRF signals, ratio of fluorescence intensities at emission wavelengths for fluorescein acceptor (520 nm) and terbium donor (495 nm), the 520/495 ratio, were measured on the Envision Plate reader. Inhibition data were calculated from the 520/495 ratio generated by the no protein control reactions for 100% inhibition and vehicle-only reactions for 0% inhibition, and dose response curves generated to determine the concentration required for inhibiting 50% of the HTRF signal (IC50). Compounds were dissolved at 10 mM in dimethylsulfoxide (DMSO) and evaluated at eleven concentrations.
On the technique in general: Time-resolved FRET reads energy transfer from a long-lived donor to a nearby acceptor.

Another experiment addresses HIS-AXL 473-End (Homo sapiens (Human), UniProt P30530). Put plainly: AXL kinase homogeneous time resolved fluorescence (HTRF) binding assay. The conditions noted are these: 1 nM kinase, fluorescein-labeled kinase tracer at Kd, 60 minutes at room temperature. Here is the method: as §1, §2

Structures are written as SMILES.

Sequence of GST-MERTK 578-872 (Q12866 578-872): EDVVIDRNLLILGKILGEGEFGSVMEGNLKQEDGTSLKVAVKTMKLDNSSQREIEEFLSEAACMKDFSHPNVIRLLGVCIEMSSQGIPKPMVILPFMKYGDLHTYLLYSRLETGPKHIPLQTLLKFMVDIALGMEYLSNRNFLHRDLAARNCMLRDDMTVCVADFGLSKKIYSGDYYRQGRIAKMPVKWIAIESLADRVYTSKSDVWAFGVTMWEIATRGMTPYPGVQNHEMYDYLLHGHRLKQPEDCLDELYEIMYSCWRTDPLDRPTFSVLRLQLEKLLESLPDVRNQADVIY
Sequence of HIS-AXL 473-End (P30530 473-894): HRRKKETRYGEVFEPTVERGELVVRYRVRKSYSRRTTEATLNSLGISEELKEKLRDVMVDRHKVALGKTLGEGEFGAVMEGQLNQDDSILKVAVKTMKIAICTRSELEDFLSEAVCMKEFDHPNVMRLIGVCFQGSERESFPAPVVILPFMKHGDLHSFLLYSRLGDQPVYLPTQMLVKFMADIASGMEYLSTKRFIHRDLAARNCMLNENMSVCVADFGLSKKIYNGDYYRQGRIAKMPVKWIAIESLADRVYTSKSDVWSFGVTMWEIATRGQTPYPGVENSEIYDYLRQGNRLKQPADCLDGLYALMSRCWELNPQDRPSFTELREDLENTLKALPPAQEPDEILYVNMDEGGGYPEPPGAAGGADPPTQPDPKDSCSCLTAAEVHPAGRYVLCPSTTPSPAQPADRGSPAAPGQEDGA

For orientation: IC50 means the point on the concentration scale where inhibition reaches its midpoint. Turning to `CC(C)n1cc(C(=O)Nc2ccc(Oc3ccnc(Nc4ccc(S(=O)(=O)N(C)C)cn4)c3)c(F)c2)c(=O)n(Cc2ccncc2)c1=O` [Example 58], the results for the IC50 at GST-MERTK 578-872 and at HIS-AXL 473-End were 201 nM and 287 nM, respectively.
Taken in the same sequence, the figures for `CC(C)n1cc(C(=O)Nc2ccc(Oc3ccnc(Nc4ccc(S(=O)(=O)NC5CC5)cn4)c3)c(F)c2)c(=O)n(-c2ccc(F)cc2)c1=O` [Example 79] were 13 nM and 70 nM.
In the same order, the values of `CC(C)n1cc(C(=O)Nc2ccc(Oc3ccnc(Nc4ccc(S(=O)(=O)N(C)C)cn4)c3)c(F)c2)c(=O)n(-c2cccc(F)c2)c1=O` [Example 68] are 20 nM and 7.1 nM.
Taken in the same sequence, the figures for `Cc1ccc(Nc2cc(Oc3ccc(NC(=O)c4cn(C(C)C)c(=O)n(-c5ccc(F)cc5)c4=O)cc3F)ccn2)nc1Cl` [Example 7] were 82 nM and 21 nM.
For the compound `CC(C)n1cc(C(=O)Nc2ccc(Oc3ccnc(Nc4ccc(S(=O)(=O)N5CCOCC5)cn4)c3)c(F)c2)c(=O)n(-c2ccc(F)cc2)c1=O` [Example 84], the IC50 was 31 nM at GST-MERTK 578-872 and 2330 nM on HIS-AXL 473-End.
For the compound `CC(C)n1cc(C(=O)Nc2ccc(Oc3ccnc(Nc4ccc(S(=O)(=O)N(C)C)cn4)c3)c(F)c2)c(=O)n(-c2ccc(Cl)cc2)c1=O` [Example 66], the IC50 at GST-MERTK 578-872 was found to be 29 nM; on HIS-AXL 473-End it was 31 nM.
In the same order, the values of `COC(=O)N1CCN(c2nc(Nc3cc(Oc4ccc(NC(=O)c5cn(C(C)C)c(=O)n(-c6ccc(F)cc6)c5=O)cc4F)ccn3)ccc2C#N)CC1` [Example 119] are 1.5 nM and 4.2 nM.
Turning to `CC(C)n1cc(C(=O)Nc2ccc(Oc3ccnc(Nc4ccc(S(=O)(=O)N5CCC5)cn4)c3)c(F)c2)c(=O)n(-c2ccc(F)cc2)c1=O` [Example 81], the IC50 at GST-MERTK 578-872 was 17 nM; on HIS-AXL 473-End it was 4.4 nM.
`CC(C)n1cc(C(=O)Nc2ccc(Oc3ccnc(Nc4ccc(S(=O)(=O)N5CCN(C)CC5)cn4)c3)c(F)c2)c(=O)n(-c2ccc(F)cc2)c1=O` [Example 85]: the IC50 on GST-MERTK 578-872 was 19 nM; on HIS-AXL 473-End, 3.9 nM.
Taken in the same sequence, the figures for `CC(C)n1cc(C(=O)Nc2ccc(Oc3ccnc(Nc4nc(N5CCN(S(C)(=O)=O)CC5)ccc4F)c3)c(F)c2)c(=O)n(-c2ccc(F)cc2)c1=O` [Example 135, N-{3-fluoro-4-[(2-{[3-fluoro-6-(4-methanesulfonylpiperazin-1-yl)pyridin-2-yl]amino}pyridin-4-yl)oxy]phenyl}-3-(4-fluorophenyl)-2,4-dioxo-1-(propan-2-yl)-1,2,3,4-tetrahydropyrimidine-5-carboxamide] were 1 nM and 1.1 nM.
In the same order, the values of `CC(C)n1cc(C(=O)Nc2ccc(Oc3ccnc(Nc4ccc(C#N)cn4)c3)c(F)c2)c(=O)n(-c2ccc(F)cc2)c1=O` [Example 1, N-[4-({2-[(5-cyanopyridin-2-yl)amino]pyridin-4-yl}oxy)-3-fluorophenyl]-3-(4-fluorophenyl)-2,4-dioxo-1-(propan-2-yl)-1,2,3,4-tetrahydropyrimidine-5-carboxamide] are 14 nM and 2.9 nM.
Consider `CC(C)n1cc(C(=O)Nc2ccc(Oc3ccnc(Nc4ccnc(N5CCC(S(C)(=O)=O)CC5)n4)c3)c(F)c2)c(=O)n(C23CC(C2)C3)c1=O` [Example 113], for which the figures for the IC50 at GST-MERTK 578-872 and on HIS-AXL 473-End were 2.8 nM and 4.8 nM, respectively.
Consider `CC(C)n1cc(C(=O)Nc2ccc(Oc3ccnc(Nc4ccc(OC(F)(F)F)cn4)c3)c(F)c2)c(=O)n(-c2ccc(F)cc2)c1=O` [Example 11], for which the concentration for half-maximal inhibition (IC50) was found to be 128 nM at GST-MERTK 578-872 and 53 nM at HIS-AXL 473-End.
For `CC(C)n1cc(C(=O)Nc2ccc(Oc3ccnc(Nc4ccc(S(=O)(=O)N(C)C)cn4)c3)cc2)c(=O)n(-c2ccc(F)cc2)c1=O` [Example 74, N-{4-[(2-{[5-(dimethylsulfamoyl)pyridin-2-yl]amino}pyridin-4-yl)oxy]phenyl}-3-(4-fluorophenyl)-2,4-dioxo-1-(propan-2-yl)-1,2,3,4-tetrahydropyrimidine-5-carboxamide], the IC50 came to 1440 nM at GST-MERTK 578-872 and 2.9 nM at HIS-AXL 473-End.
In the same order, the values of `Cc1ccc(Nc2cc(Oc3ccc(NC(=O)c4cn(C(C)C)c(=O)n(-c5ccc(F)cc5)c4=O)cc3F)ccn2)nc1` [Example 4] are 32 nM and 4.4 nM.
Taken in the same sequence, the figures for `CN(C)S(=O)(=O)c1ccc(Nc2cc(Oc3ccc(NC(=O)c4cn(C)c(=O)n(-c5ccc(F)cc5)c4=O)cc3F)ccn2)nc1` [Example 44] were 71 nM and 19 nM.
In the same order, the values of `CC(C)n1cc(C(=O)Nc2ccc(Oc3ccnc(Nc4ccc(S(=O)(=O)N5CC(O)C5)cn4)c3)c(F)c2)c(=O)n(-c2ccc(F)cc2)c1=O` [Example 82] are 8.8 nM and 256 nM.
For `CC(C)n1cc(C(=O)Nc2ccc(Oc3ccnc(Nc4ccc(C#N)c(N5CCC(O)(C(F)(F)F)CC5)n4)c3)c(F)c2)c(=O)n(-c2ccc(F)cc2)c1=O` [Example 122], the IC50 at GST-MERTK 578-872 came to 6 nM; at HIS-AXL 473-End, 9.8 nM.
Taken in the same sequence, the figures for `CC(=O)c1ccc(-n2c(=O)c(C(=O)Nc3ccc(Oc4ccnc(Nc5ccc(S(=O)(=O)N(C)C)cn5)c4)c(F)c3)cn(C(C)C)c2=O)cc1` [Example 64] were 814 nM and 181 nM.
With `CCc1cnc(Nc2cc(Oc3ccc(NC(=O)c4cn(C(C)C)c(=O)n(-c5ccc(F)cc5)c4=O)cc3F)ccn2)cn1` [Example 28], the IC50 at GST-MERTK 578-872 was 20 nM; at HIS-AXL 473-End it was 7.4 nM.
Taken in the same sequence, the figures for `CC(C)n1cc(C(=O)Nc2ccc(Oc3ccnc(Nc4ccc(C(N)=O)cn4)c3)c(F)c2)c(=O)n(-c2ccc(F)cc2)c1=O` [Example 16] were 5.8 nM and 1.1 nM.
With `Cc1cnc(Nc2ccnc(N3CCC(S(C)(=O)=O)CC3)n2)cc1Oc1ccc(NC(=O)c2cn(C(C)C)c(=O)n(-c3ccccc3)c2=O)cc1` [Example 115, N-{4-[(2-{[2-(4-methanesulfonylpiperidin-1-yl)pyrimidin-4-yl]amino}-5-methylpyridin-4-yl)oxy]phenyl}-2,4-dioxo-3-phenyl-1-(propan-2-yl)-1,2,3,4-tetrahydropyrimidine-5-carboxamide], the IC50 on GST-MERTK 578-872 is 810 nM; on HIS-AXL 473-End, 41 nM.
Taken in the same sequence, the figures for `Cn1cc(C(=O)Nc2ccc(Oc3ccnc(Nc4ccc(S(C)(=O)=O)cn4)c3)c(F)c2)c(=O)n(-c2ccc(F)cc2)c1=O` [Example 38] were 16 nM and 3.5 nM.
In the same order, the values of `CC(C)n1cc(C(=O)Nc2ccc(Oc3ccnc(Nc4ccc(S(=O)(=O)N(C)C)c(N5CCN(S(C)(=O)=O)CC5)n4)c3)c(F)c2)c(=O)n(-c2ccc(F)cc2)c1=O` [Example 99, N-{4-[(2-{[5-(dimethylsulfamoyl)-6-(4-methanesulfonylpiperazin-1-yl)pyridin-2-yl]amino}pyridin-4-yl)oxy]-3-fluorophenyl}-3-(4-fluorophenyl)-2,4-dioxo-1-(propan-2-yl)-1,2,3,4-tetrahydropyrimidine-5-carboxamide] are 6.4 nM and 7.4 nM.
On to `C[C@H](CO)n1cc(C(=O)Nc2ccc(Oc3ccnc(Nc4ccc(S(=O)(=O)N(C)C)cn4)c3)c(F)c2)c(=O)n(-c2ccc(F)cc2)c1=O` [Example 55], for which the IC50 on GST-MERTK 578-872 is 6.7 nM.
`CC(C)n1cc(C(=O)Nc2ccc(Oc3ccnc(Nc4ncc(Cl)cc4F)c3)c(F)c2)c(=O)n(-c2ccc(F)cc2)c1=O` [Example 3]: the half-maximal inhibitory concentration (IC50) at GST-MERTK 578-872 is 59 nM; at HIS-AXL 473-End it was 1730 nM.
Taken in the same sequence, the figures for `CC(C)n1cc(C(=O)Nc2ccc(Oc3ccnc(Nc4cc(N5CCOCC5)ccn4)c3)c(F)c2)c(=O)n(-c2ccc(F)cc2)c1=O` [Example 22] were 49 nM and 8.9 nM.
As for `CCc1ccc(Nc2cc(Oc3ccc(NC(=O)c4cn(C(C)C)c(=O)n(-c5ccc(F)cc5)c4=O)cc3F)ccn2)nc1` [Example 5], the half-inhibitory concentration (IC50) came to 56 nM on GST-MERTK 578-872 and 24 nM on HIS-AXL 473-End.
In the case of `CC(C)n1cc(C(=O)Nc2ccc(Oc3ccnc(Nc4ccc(S(=O)(=O)NC(C)(C)C)cn4)c3)c(F)c2)c(=O)n(-c2ccc(F)cc2)c1=O` [Example 80], the IC50 stood at 19 nM at GST-MERTK 578-872 and 12 nM on HIS-AXL 473-End.
Take `C[C@H](CO)n1cc(C(=O)Nc2ccc(Oc3ccnc(Nc4ccc(S(=O)(=O)N(C)C)cn4)c3)c(F)c2)c(=O)n(-c2ccc(F)cc2)c1=O` [Example 56]: the half-inhibitory concentration (IC50) on GST-MERTK 578-872 was 17 nM.
Take `CC(C)n1cc(C(=O)Nc2ccc(Oc3ccnc(Nc4ccc(C#N)c(N5CCC(O)(C(F)(F)F)CC5)n4)c3)c(F)c2)c(=O)n(Cc2ccccc2)c1=O` [Example 132]: on GST-MERTK 578-872, the IC50 stood at 12 nM.
As to `CC(C)n1cc(C(=O)Nc2ccc(Oc3ccnc(Nc4ccnc(N5CCCC5)n4)c3)c(F)c2)c(=O)n(CC2CC2)c1=O` [Example 110], the half-inhibitory concentration (IC50) on GST-MERTK 578-872 worked out at 1.6 nM.
Still for that read-out and setting: the value for `CC(C)NC(=O)c1ccc(Nc2cc(Oc3ccc(NC(=O)c4cn(C(C)C)c(=O)n(-c5ccc(F)cc5)c4=O)cc3F)ccn2)nc1` [Example 94] was 3.5 nM; that for `CC(C)n1cc(C(=O)Nc2ccc(Oc3ccnc(Nc4ccnc(N5CCCC5)n4)c3)c(F)c2)c(=O)n(CC2CCCCC2)c1=O` [Example 111] was 14 nM; that for `COC(=O)N1CCN(c2nc(Nc3cc(Oc4ccc(NC(=O)c5cn(C(C)C)c(=O)n(Cc6ccccc6)c5=O)cc4F)ccn3)ccc2C#N)CC1` [Example 130] was 7.1 nM.

Source of the values: patent publication US20230339891A1, “URACIL DERIVATIVES AS MER-AXL INHIBITORS” (BRISTOL-MYERS SQUIBB COMPANY, priority 2018, published 2023).
